Test results as given in patent publication US20250108139A1, “PEPTIDE UREA DERIVATIVE, PHARMACEUTICAL COMPOSITION CONTAINING PEPTIDE UREA DERIVATIVE, AND APPLICATION OF PEPTIDE UREA DERIVATIVE” (BIVISION PHARMACEUTICALS, INC, priority 2022, published 2025).
One block for each compound: values may come before it.

Legend:
PSMA protein = PSMA protein (Homo sapiens (Human), UniProt Q04609); assay: Affinity of DB compounds to PSMA protein using Biacore (Effect Example 3); settings: Biacore 8K, 15° C., 1:1 binding model; pKD=−Log KD
Protocol: The affinity of DB compounds to PSMA protein was tested using the Biacore 8K (Cytiva) instrument to detect ligand binding to PSMA protein (Sino Biological). PSMA protein was captured on an SA chip. Before fixing the ligand (flow paths 1 and 2, flow rate of 10 μL/min), PSMA protein (10 μg/mL, flow rate of 5 μL/min, injection time of 600 s) was fixed on flow path 2 using a flow buffer. The sensor surface was adjusted by continuously injecting 1 M NaCl three times in 50 mM NaOH. After each ligand injection, additional cleaning was performed using isopropanol in 1 M NaCl and 50 mM NaOH (flow paths 1 and 2, flow rate of 10 μL/min, injection time of 60 s).
All compounds were dissolved in 100% DMSO and diluted to 10 mM, then further diluted to the appropriate highest concentration in the analysis buffer (PBS, PH 7.4, 1 mM TCEP ([…]), 0.05% P20, 2% DMSO). The analysis was conducted under the following conditions: 15° C. analysis temperature; analysis steps=all set to LMW kinetics; cycle type=single cycle (90 s contact time, 1800 s dissociation time, 30 μL/min flow rate, flow paths 1 and 2); detection in flow=path 2-1. Data evaluation was performed using Biacore Insight Evaluation Software, fitting the data to a 1:1 binding model.
Biacore results are shown in Table 5: pKD=−Log KD, wherein KD is the binding affinity of the compound to PSMA protein measured by Biacore. It is expressed by Kd (M)=Kd (1/s)/Ka (1/Ms). A indicates pKD>8; B indicates 7<pKD<8; C indicates 6<pKD<7; D indicates pKD<6.

[1] = test system: PSMA-positive 22rv1 tumor-bearing mouse; assay: 177Lu labeling and animal biodistribution experiment, gamma counter; format: in vivo; settings: 177Lu-labeled compound, 24 h after tail vein injection, n = 2
Protocol: Distribution in PSMA-positive tumor-bearing mouse tissues: Tumor-bearing animals (purchased from Shanghai Alamo Pharmaceutical Technology Co., Ltd.) were subcutaneously inoculated with 3×10^6 22rv1 cells (in 50% Matrigel, Corning) into the right shoulder region of 6-9 week old (Balb/c Nude) mouse. Once the tumors had grown to an appropriate size, ^177Lu-radiolabeled DB compounds were injected into the mouse via the tail vein (approximately 1.85 MBq-3.7 MBq/mouse, specific activity: 22423.82 Kbq/μg). After administration, the animals were euthanized using carbon dioxide inhalation at 24 hours. The blood and organs (blood, liver, kidney, muscle, tumor) were collected.
Blood was collected through the abdominal aorta and 100 μL was immediately quantified into designated centrifuge tubes (weighed). After collection, the organs were washed twice with deionized water, dried, placed in pre-weighed tubes, and weighed again to calculate the sample weight. Samples were measured on the day of collection. All blood and tissue samples were measured for radioactivity using a gamma counter. The results are shown in FIGS. 3, 4, 5, 6, 7, and Table 6.

[2] = test system: human prostate cancer cell line 22RV1 tumor model; assay: Micro-SPECT/CT scanning imaging study in mouse transplanted with 22RV1; format: in vivo; settings: for Uptake in Bladder / Uptake in Kidney / Uptake in Liver / Uptake in Muscle / Uptake in Tumor (22Rv1): i.v., Micro-SPECT/CT
Protocol: Human prostate cancer cell line 22RV1 cells were subcutaneously injected into the axilla of nude mouse to establish a prostate cancer tumor model. Approximately 3.7 MBq (100 μCi/200 μL) of the ^177Lu-labeled compound [^177Lu] DB-01 was administered via intravenous injection. SPECT/CT images were acquired using the U-SPECT+/CT (MI Labs) at 3rd hour, 5th hour, 24th hour, 72nd hour, 120th hour and 168th hour post-injection, and the resulting SPECT/CT images were quantitatively analyzed.
Table 4 presents the uptake in various organs of mouse at the 3rd hour, 5th hour, 24th hour, 72nd hour, 120th hour, and 168th hour post-injection of [^177Lu] DB-01. The results are expressed as the quantitative percentage of the injected dose (% ID)/g, based on Micro-SPECT/CT quantitative analysis.

Sequence of PSMA protein (Q04609 whole entry): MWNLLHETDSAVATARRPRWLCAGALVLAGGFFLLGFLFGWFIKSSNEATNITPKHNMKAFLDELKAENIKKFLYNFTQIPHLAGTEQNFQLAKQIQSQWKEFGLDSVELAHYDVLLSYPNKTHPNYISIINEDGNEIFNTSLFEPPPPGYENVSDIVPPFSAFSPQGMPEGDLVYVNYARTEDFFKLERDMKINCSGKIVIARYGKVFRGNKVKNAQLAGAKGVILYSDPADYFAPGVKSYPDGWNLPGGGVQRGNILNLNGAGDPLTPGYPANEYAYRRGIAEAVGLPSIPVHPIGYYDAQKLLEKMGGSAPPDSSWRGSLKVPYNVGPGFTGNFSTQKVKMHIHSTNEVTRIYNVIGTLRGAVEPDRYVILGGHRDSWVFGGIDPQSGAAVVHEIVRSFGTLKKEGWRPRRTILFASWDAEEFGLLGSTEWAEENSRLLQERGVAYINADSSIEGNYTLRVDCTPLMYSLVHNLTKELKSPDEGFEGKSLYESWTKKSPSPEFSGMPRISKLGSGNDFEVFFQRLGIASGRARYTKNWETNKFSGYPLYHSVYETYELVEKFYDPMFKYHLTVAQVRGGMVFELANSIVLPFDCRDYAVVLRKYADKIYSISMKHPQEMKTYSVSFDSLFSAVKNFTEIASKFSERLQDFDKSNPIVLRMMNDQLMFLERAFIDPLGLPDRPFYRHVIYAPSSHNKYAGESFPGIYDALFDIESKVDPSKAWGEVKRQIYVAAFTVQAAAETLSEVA

Kd (PSMA protein): < 0.01 µM
Structure (SMILES): O=C(O)CC[C@H](NC(=O)N[C@@H](CCCCNC(=O)[C@H](Cc1ccc2ccccc2c1)NC(=O)[C@H]1CC[C@H](CNC(=O)CNC(=O)c2cc(NC(=O)CN3CCN(CC(=O)O)CCN(CC(=O)O)CCN(CC(=O)O)CC3)cc(C(=O)NCC(=O)NC[C@H]3CC[C@H](C(=O)N[C@@H](Cc4ccc5ccccc5c4)C(=O)NCCCC[C@H](NC(=O)N[C@@H](CCC(=O)O)C(=O)O)C(=O)O)CC3)c2)CC1)C(=O)O)C(=O)O [DB-02]

Kd (PSMA protein): < 0.01 µM | Blood uptake [1]: 0.145 % ID/g | Kidney uptake [1]: 88.175 % ID/g | Liver uptake [1]: 1.415 % ID/g | Muscle uptake [1]: 0.135 % ID/g
Structure (SMILES): O=C(O)CC[C@H](NC(=O)N[C@@H](CCCCNC(=O)[C@H](Cc1ccc2ccccc2c1)NC(=O)c1ccc(C2CCN(C(=O)CCC(=O)NCC(=O)N3CN(C(=O)CNC(=O)CCC(=O)N4CCC(c5ccc(C(=O)N[C@@H](Cc6ccc7ccccc7c6)C(=O)NCCCC[C@H](NC(=O)N[C@@H](CCC(=O)O)C(=O)O)C(=O)O)cc5)CC4)CN(C(=O)CNC(=O)CN4CCN(CC(=O)O)CCN(CC(=O)O)CCN(CC(=O)O)CC4)C3)CC2)cc1)C(=O)O)C(=O)O [DB-12]

Kd (PSMA protein): < 0.01 µM | Blood uptake [1]: 0.06 % ID/g | Kidney uptake [1]: 31.72 % ID/g | Liver uptake [1]: 0.37 % ID/g | Muscle uptake [1]: 0.1 % ID/g | Tumor uptake [1]: 43.175 % ID/g
Structure (SMILES): O=C(O)CC[C@H](NC(=O)N[C@@H](CCCCNC(=O)[C@H](Cc1ccc2ccccc2c1)NC(=O)c1ccc2c(c1)CCN(C(=O)CCC(=O)NCC(=O)N1CN(C(=O)CNC(=O)CCC(=O)N3CCc4cc(C(=O)N[C@@H](Cc5ccc6ccccc6c5)C(=O)NCCCC[C@H](NC(=O)N[C@@H](CCC(=O)O)C(=O)O)C(=O)O)ccc4C3)CN(C(=O)CNC(=O)CN3CCN(CC(=O)O)CCN(CC(=O)O)CCN(CC(=O)O)CC3)C1)C2)C(=O)O)C(=O)O [DB-14]

Kd (PSMA protein): < 0.01 µM | Blood uptake [1]: 0.035 % ID/g | Kidney uptake [1]: 8.76 % ID/g | Liver uptake [1]: 0.095 % ID/g | Muscle uptake [1]: 0.04 % ID/g | Tumor uptake [1]: 19.46 % ID/g
Structure (SMILES): O=C(O)CC[C@H](NC(=O)NC(CCCCNC(=O)[C@H](Cc1ccc2ccccc2c1)NC(=O)[C@H]1CC[C@H](NC(=O)COCCOCCNC(=O)c2cc(NC(=O)CCCCCCCNC(=O)CN3CCN(CC(=O)O)CCN(CC(=O)O)CCN(CC(=O)O)CC3)cc(C(=O)NCCOCCOCC(=O)N[C@H]3CC[C@H](C(=O)N[C@@H](Cc4ccc5ccccc5c4)C(=O)NCCCC[C@H](NC(=O)N[C@@H](CCC(=O)O)C(=O)O)C(=O)O)CC3)c2)CC1)C(=O)O)C(=O)O (stereo partly shown) [DB-15]

Kd (PSMA protein): < 0.01 µM | Blood uptake [1]: 0.03 % ID/g | Kidney uptake [1]: 5.135 % ID/g | Liver uptake [1]: 0.185 % ID/g | Muscle uptake [1]: 0.045 % ID/g | Tumor uptake [1]: 12.015 % ID/g
Structure (SMILES): O=C(O)CC[C@H](NC(=O)NC(CCCCNC(=O)[C@H](Cc1ccc2ccccc2c1)NC(=O)[C@H]1CC[C@H](NC(=O)CCC(=O)NCCCC[C@H](NC(=O)CCC(=O)N[C@H]2CC[C@H](C(=O)N[C@@H](Cc3ccc4ccccc4c3)C(=O)NCCCC[C@H](NC(=O)N[C@@H](CCC(=O)O)C(=O)O)C(=O)O)CC2)C(=O)NCCNC(=O)CN2CCN(CC(=O)O)CCN(CC(=O)O)CCN(CC(=O)O)CC2)CC1)C(=O)O)C(=O)O (stereo partly shown) [DB-16]

Kd (PSMA protein): < 0.01 µM
Structure (SMILES): O=C(O)CC[C@H](NC(=O)NC(CCCCNC(=O)[C@H](Cc1ccc2ccccc2c1)NC(=O)[C@H]1CC[C@H](NC(=O)c2cc(NC(=O)CNC(=O)CN3CCN(CC(=O)O)CCN(CC(=O)O)CCN(CC(=O)O)CC3)cc(C(=O)N[C@H]3CC[C@H](C(=O)N[C@@H](Cc4ccc5ccccc5c4)C(=O)NCCCC[C@H](NC(=O)N[C@@H](CCC(=O)O)C(=O)O)C(=O)O)CC3)c2)CC1)C(=O)O)C(=O)O (stereo partly shown) [DB-17]

Kd (PSMA protein): < 0.01 µM | Blood uptake [1]: 0.160 % ID/g | Kidney uptake [1]: 74.455 % ID/g | Liver uptake [1]: 1.020 % ID/g | Muscle uptake [1]: 0.175 % ID/g | Tumor uptake [1]: 41.73 % ID/g
Structure (SMILES): O=C(O)CC[C@H](NC(=O)NC(CCCCNC(=O)[C@H](Cc1ccc2ccccc2c1)NC(=O)c1ccc(C2CCN(C(=O)CCC(=O)NCCCC[C@H](NC(=O)CCC(=O)N3CCC(c4ccc(C(=O)N[C@@H](Cc5ccc6ccccc6c5)C(=O)NCCCC[C@H](NC(=O)N[C@@H](CCC(=O)O)C(=O)O)C(=O)O)cc4)CC3)C(=O)NCCNC(=O)CN3CCN(CC(=O)O)CCN(CC(=O)O)CCN(CC(=O)O)CC3)CC2)cc1)C(=O)O)C(=O)O (stereo partly shown) [DB-20]

Kd (PSMA protein): < 0.01 µM | Blood uptake [1]: 1.54 % ID/g | Kidney uptake [1]: 150.54 % ID/g | Liver uptake [1]: 3.645 % ID/g | Muscle uptake [1]: 0.465 % ID/g | Tumor uptake [1]: 77.54 % ID/g
Structure (SMILES): O=C(O)CC[C@H](NC(=O)NC(CCCCNC(=O)[C@H](Cc1ccc2ccccc2c1)NC(=O)c1ccc(C2CCN(C(=O)CNC(=O)c3cc(NC(=O)COCCOCCNC(=O)CN4CCN(CC(=O)O)CCN(CC(=O)O)CCN(CC(=O)O)CC4)cc(C(=O)NCC(=O)N4CCC(c5ccc(C(=O)N[C@@H](Cc6ccc7ccccc7c6)C(=O)NCCCC[C@H](NC(=O)N[C@@H](CCC(=O)O)C(=O)O)C(=O)O)cc5)CC4)c3)CC2)cc1)C(=O)O)C(=O)O (stereo partly shown) [DB-21]

Structure (SMILES): O=C(O)CC[C@H](NC(=O)N[C@@H](CCCCNC(=O)[C@H](Cc1ccc2ccccc2c1)NC(=O)C1CCC(CNC(=O)c2cc(NC(=O)C[N+]34CC[N+]56CC[N+]78CC[N+]9(CC3)CC(=O)[O][Lu-4]4597([O]C(=O)C6)[O]C(=O)C8)cc(C(=O)NC[C@H]3CC[C@H](C(=O)N[C@@H](Cc4ccc5ccccc5c4)C(=O)NCCCC[C@H](NC(=O)N[C@@H](CCC(=O)O)C(=O)O)C(=O)O)CC3)c2)CC1)C(=O)O)C(=O)O (stereo partly shown) [[^177Lu] DB-01]
Uptake in Bladder ([2]; 3 hr post-injection): 65.50 ± 36.65 % ID/g | Uptake in Kidney ([2]; 3 hr post-injection): 43.00 ± 7.38 % ID/g | Uptake in Liver ([2]; 3 hr post-injection): 2.75 ± 0.90 % ID/g | Uptake in Muscle ([2]; 3 hr post-injection): 1.97 ± 0.71 % ID/g | Uptake in Tumor (22Rv1) ([2]; 3 hr post-injection): 21.25 ± 4.38 % ID/g | Uptake in Bladder ([2]; 5 hr post-injection): 140.36 ± 10.51 % ID/g | Uptake in Kidney ([2]; 5 hr post-injection): 19.29 ± 2.77 % ID/g | Uptake in Liver ([2]; 5 hr post-injection): 1.56 ± 0.15 % ID/g | Uptake in Muscle ([2]; 5 hr post-injection): 1.10 ± 0.56 % ID/g | Uptake in Tumor (22Rv1) ([2]; 5 hr post-injection): 21.28 ± 0.42 % ID/g | Uptake in Bladder ([2]; 24 hr post-injection): 0.61 ± 0.00 % ID/g | Uptake in Kidney ([2]; 24 hr post-injection): 1.32 ± 0.63 % ID/g | Uptake in Liver ([2]; 24 hr post-injection): 0.91 ± 0.45 % ID/g | Uptake in Muscle ([2]; 24 hr post-injection): 0.51 ± 0.17 % ID/g | Uptake in Tumor (22Rv1) ([2]; 24 hr post-injection): 15.51 ± 2.65 % ID/g | Uptake in Bladder ([2]; 72 hr post-injection): 1.03 ± 0.62 % ID/g | Uptake in Kidney ([2]; 72 hr post-injection): 1.38 ± 0.29 % ID/g | Uptake in Liver ([2]; 72 hr post-injection): 0.90 ± 0.42 % ID/g | Uptake in Muscle ([2]; 72 hr post-injection): 0.81 ± 0.23 % ID/g | Uptake in Tumor (22Rv1) ([2]; 72 hr post-injection): 12.41 ± 0.95 % ID/g | Uptake in Bladder ([2]; 120 hr post-injection): 0.92 ± 0.06 % ID/g | Uptake in Kidney ([2]; 120 hr post-injection): 0.77 ± 0.62 % ID/g | Uptake in Liver ([2]; 120 hr post-injection): 0.99 ± 0.22 % ID/g | Uptake in Muscle ([2]; 120 hr post-injection): 0.43 ± 0.17 % ID/g | Uptake in Tumor (22Rv1) ([2]; 120 hr post-injection): 8.90 ± 0.48 % ID/g | Uptake in Bladder ([2]; 168 hr post-injection): 1.01 ± 0.38 % ID/g | Uptake in Kidney ([2]; 168 hr post-injection): 1.53 ± 0.46 % ID/g | Uptake in Liver ([2]; 168 hr post-injection): 1.04 ± 0.26 % ID/g | Uptake in Muscle ([2]; 168 hr post-injection): 0.65 ± 0.34 % ID/g | Uptake in Tumor (22Rv1) ([2]; 168 hr post-injection): 7.85±1.16 % ID/g | uptake in tumor ([2]; at 180 minutes, according to calculations): 13.55±3.85 % ID/g | excretion ([2]; early stages post-injection): rapidly excreted through the kidneys and bladder | time at which concentration of the radiopharmaceutical in the tumor reaches its peak ([2]; post-administration): 5 h
